These results are taken from patent US20210171503A1, “GLYCOLATE OXIDASE INHIBITORS AND USE THEREOF” (ORFAN BIOTECH INC., priority 2017, published 2021).

Counter-ions that a name gives are not always drawn.

Usually inhibition stands for the drop in the measured response relative to a control, in per cent.

For this experiment, the target named is T1, mouse glycolate oxidase (mGO) (Mus musculus, UniProt Q9WU19).
T1 construct: His6 (N); made in house; host or cells: E. coli BL21 (DE3)
T1 sequence (Q9WU19 1-370): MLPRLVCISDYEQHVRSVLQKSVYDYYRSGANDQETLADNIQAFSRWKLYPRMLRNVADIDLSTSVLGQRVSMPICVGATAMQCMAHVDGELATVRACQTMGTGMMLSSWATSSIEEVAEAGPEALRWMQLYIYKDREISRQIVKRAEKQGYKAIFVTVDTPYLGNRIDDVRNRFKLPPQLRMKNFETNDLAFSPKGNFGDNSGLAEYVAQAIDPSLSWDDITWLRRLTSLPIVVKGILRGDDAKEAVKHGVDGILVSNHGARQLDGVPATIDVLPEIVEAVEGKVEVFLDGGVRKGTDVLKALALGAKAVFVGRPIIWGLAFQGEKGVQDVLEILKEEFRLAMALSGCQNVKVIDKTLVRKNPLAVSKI
The experiment can be described thus: In vitro inhibition of mouse glycolate oxidase (mGO), HRP-coupled Trinder reaction. It counts as biochemical. The settings on record: compound tested at 100 μM; 40 mM glycolic acid as substrate; activity calculated at 1 minute. The procedure:
Protein expression. BL21 (DE3) E. coli transformed with recombinant pET-15b expression vector containing mouse Hao1 cDNA with an N-terminal His6 tag was grown in LB medium in the presence of 0.1 mg/mL ampicillin. For purification of recombinant mGO expressed in BL21 E. coli, bacteria pellets were thawed and re-suspended in 2 mL lysis buffer (50 mM NaH2PO4, 300 mM NaCl, 10 mM imidazole, 50 μM flavin mononucleotide (FMN), pH 7.5), and then treated for 30 minutes with 1 mM phenylmethylsulfonyl fluoride (PMSF) for protease inhibition, 0.1% Triton X-100 and 0.2 mg/mL lysozyme to break cellular membranes. After sonication, cells were centrifuged and the supernatant containing the total cellular extract (pre-column fraction) was loaded into a Ni-NTA agarose column, and incubated for 30 minutes at 4° C. to allow binding. The column was washed with two bed volumes of lysis buffer with 20 mM imidazole to eliminate unbound proteins (wash fraction). mGO was eluted using the same buffer containing 300 mM imidazole. Fractions containing purified GO were dialyzed against 300 mL of dialysis buffer (50 mM NaH2PO4, 300 mM NaCl, pH 7.5) at 4° C. with agitation overnight, and then kept at 4° C. in darkness. Protein was quantified by the bicinchoninic acid (BCA) assay.
Inhibition assays. Enzymatic activity of mGO was determined in the presence of glycolate as substrate (40 mM glycolic acid) and phosphate buffer (50 mM KPO4, 0.1 mM EDTA, pH 7). The production of glyoxylate was indirectly measured by the quantification of hydrogen peroxide formed during the first oxidation reaction. This hydrogen peroxide reacted with 4.9 mM 4-aminoantipyrine and 0.1 mM sulphonated […] in a coupled horseradish peroxidase (HRP) reaction that yields a quinoneimine dye (FIG. 1) measured at 515 nm (Trinder reaction). Enzymatic activity was calculated at 1 minute after initiation of the Trinder reaction.
For the compound `Cc1onc(C(=O)O)c1SCc1ccccc1` [Compound 51, 4-(Benzylthio)-5-methylisoxazole-3-carboxylic Acid], the inhibition at 100 µM was below 30%.
On to `CC(C)(C)OC(=O)N1CCC(CCOc2ccc(Cc3ccc(Nc4ccnnc4C(=O)O)cc3)cc2)CC1` [Compound 70, 4-((4-(4-(2-(1-(tert-Butoxycarbonyl)piperidin-4-yl)ethoxy)benzyl)phenyl)amino)pyridazine-3-carboxylic Acid], for which the inhibition at 100 µM is above 60%.
The value for `Cc1onc(C(=O)O)c1Cc1ccc(Br)cc1` [Compound 2, 4-(4-Bromobenzyl)-5-methylisoxazole-3-carboxylic Acid] was below 30%; that for `COc1ccc(CNc2ccnnc2C(=O)O)c(OC)c1` [Compound 49, 4-((2,4-Dimethoxybenzyl)amino)pyridazine-3-carboxylic Acid Na Salt] was 30 to 60%.
For the compound `Cc1snc(C(=O)O)c1Cc1ccc(F)cc1` [Compound 13, 4-(4-Fluorobenzyl)-5-methylisothiazole-3-carboxylic Acid], the inhibition at 100 µM is below 30%.
The value for `Cc1onc(C(=O)O)c1Nc1ccc(C#N)cc1` [Compound 30, 4-((4-Cyanophenyl)amino)-5-methylisoxazole-3-carboxylic Acid] was below 30%; that for `Cc1[nH]nc(C(=O)O)c1Cc1ccc(-c2ccc(C#N)cc2)cc1` [Compound 7, 4-((4′-Cyano-[1,1′-biphenyl]-4-yl)methyl)-5-methyl-H-pyrazole-3-carboxylic Acid] was 30 to 60%; that for `Cc1onc(C(=O)O)c1Cc1ccc(-c2ccc(C#N)cc2)cc1` [Compound 1, 4-((4′-Cyano-[1, 1′-biphenyl]-4-yl)methyl)-5-methylisoxazole-3-carboxylic Acid] was 30 to 60%.
`CCCCCC(Sc1ccnnc1C(=O)O)c1ccc(F)cc1` (stereo not drawn) [Compound 77, 4-((1-(4-Fluorophenyl)hexyl)thio)pyridazine-3-carboxylic Acid]: the inhibition at 100 µM is 30 to 60%.
Consider `O=C(O)c1nnsc1Nc1cccc(Br)c1` [Compound 23, 5-((3-Bromophenyl)amino)-1,2,3-thiadiazole-4-carboxylic Acid], for which the inhibition at 100 µM is above 60%.
For the compound `Cc1n[nH]c(C(=O)O)c1NCc1ccc(F)cc1` [Compound 43, 4-((4-Fluorobenzyl)amino)-3-methyl-1H-pyrazole-5-carboxylic Acid], the inhibition at 100 µM is 30 to 60%.
Regarding `Cc1[nH]nc(C(=O)O)c1Nc1ccc(C#N)cc1` [Compound 45, 4-((4-Cyanophenyl)amino)-5-methyl-1H-pyrazole-3-carboxylic Acid], the inhibition at 100 µM is 30 to 60%.
For `O=C(O)c1nnccc1Nc1ccc(Cc2ccc(OCCC3CCNCC3)cc2)cc1` [Compound 71, 4-((4-(4-(2-(Piperidin-4-yl)ethoxy)benzyl)phenyl)amino)-pyridazine-3-carboxylic Acid hydrochloride], the inhibition at 100 µM is 30 to 60%.
`Cc1onc(C(=O)O)c1N(Cc1ccc(Oc2ccc(C#N)cc2)cc1)Cc1ccc(Oc2ccc(C#N)cc2)cc1` [Compound 32, 4-(bis(4-(4-Cyanophenoxy)benzyl)amino)-5-methylisoxazole-3-carboxylic Acid]: the inhibition at 100 µM is above 60%.
Consider `O=C(O)c1nnsc1Cc1ccc(Oc2ccccc2)cc1` [Compound 18, 5-(4-Phenoxybenzyl)-1,2,3-thiadiazole-4-carboxylic Acid], for which the inhibition at 100 µM was 30 to 60%.
Turning to `Cc1onc(C(=O)O)c1Nc1ccc(CCc2ccc(F)cc2)cc1` [Compound 56, 4-((4-(4-fluorophenethyl)phenyl)amino)-5-methylisoxazole-3-carboxylic Acid], the inhibition at 100 µM is 30 to 60%.
Regarding `Cc1[nH]nc(C(=O)O)c1Nc1ccc(Cc2ccc(OCCN3CCNCC3)cc2)cc1` [Compound 64, 5-methyl-4-((4-(4-(2-(piperazin-1-yl)ethoxy)benzyl)phenyl)amino)-1H-pyrazole-3-carboxylic Acid hydrochloride], the inhibition at 100 µM is below 30%.
As for `Cc1[nH]nc(C(=O)O)c1Nc1ccc(Cc2ccc(OCCOC3CNC3)cc2)cc1` [Compound 60, 4-((4-(4-(2-(azetidin-3-yloxy)ethoxy)benzyl)phenyl)amino)-5-methyl-1H-pyrazole-3-carboxylic Acid hydrochloride], the inhibition at 100 µM was below 30%.
The figure for `Cc1[nH]nc(C(=O)O)c1Nc1ccc(Cc2ccc(OCCCCN3CCOCC3)cc2)cc1` [Compound 65, 5-methyl-4-((4-(4-(4-morpholinobutoxy)benzyl)phenyl)amino)-1H-pyrazole-3-carboxylic Acid] is below 0%; for `COc1ccc(CN(c2ccc(CCc3ccc(F)cc3)cc2)c2c(C(=O)O)n[nH]c2C)cc1` [Compound 67, 4-((4-(4-Fluorophenethyl)phenyl)(4-methoxybenzyl)amino)-3-methyl-1H-pyrazole-5-carboxylic Acid] it is above 60%.
`Cc1snc(C(=O)O)c1Nc1ccc(-c2ccc(C#N)cc2)cc1` [Compound 33, 4-((4′-Cyano-[1,1′-biphenyl]-4-yl)amino)-5-methylisothiazole-3-carboxylic Acid]: the inhibition at 100 µM was above 60%.
`CC(C)(C)OC(=O)N1CC(OCCOc2ccc(Cc3ccc(Nc4ccnnc4C(=O)O)cc3)cc2)C1` [Compound 68 Na salt, 4-((4-(4-(2-((1-(tert-butoxycarbonyl)azetidin-3-yl)oxy)ethoxy)benzyl)phenyl)amino)pyridazine-3-carboxylic Acid sodium Salt]: the inhibition at 100 µM is above 60%.
In the case of `CCCCCC(Sc1c(C(=O)O)n[nH]c1C)c1ccc(F)cc1` (stereo not drawn) [Compound 79, 4-((1-(4-Fluorophenyl)hexyl)thio)-5-methyl-1H-pyrazole-3-carboxylic Acid], the inhibition at 100 µM is above 60%.
Regarding `Cc1onc(C(=O)O)c1Nc1ccc(Cc2ccc(F)cc2)cc1` [Compound 54, 4-((4-(4-fluorobenzyl)phenyl)amino)-5-methylisoxazole-3-carboxylic Acid], the inhibition at 100 µM is below 30%.
For `N#Cc1ccc(-c2cccc(Nc3ccnnc3C(=O)O)c2)cc1` [Compound 48, sodium salt, 4-((4′-Cyano-[1,1′-biphenyl]-3-yl)amino)pyridazine-3-carboxylic Acid], the inhibition at 100 µM is 30 to 60%.
With `O=C(O)c1nnsc1Nc1ccc(-n2cccn2)cc1` [Compound 20, 5-((4-(1H-Pyrazol-1-yl)phenyl)amino)-1,2,3-thiadiazole-4-carboxylic Acid], the inhibition at 100 µM is above 60%.
For `COc1ccc(CN(c2ccc(-c3ccc(C#N)cc3)cc2)c2c(C(=O)O)n[nH]c2C)cc1` [Compound 57, 4-((4′-cyano-[1,1′-biphenyl]-4-yl)(4-methoxybenzyl)amino)-5-methyl-1H-pyrazole-3-carboxylic Acid], the inhibition at 100 µM is 30 to 60%.
For `Cc1n[nH]c(C(=O)O)c1N(Cc1ccc(F)cc1)Cc1ccc(F)cc1` [Compound 44, 4-(bis(4-Fluorobenzyl)amino)-3-methyl-1H-pyrazole-5-carboxylic Acid], the inhibition at 100 µM was 30 to 60%.
With `Cc1onc(C(=O)O)c1NCc1ccc(Oc2ccc(C#N)cc2)cc1` [Compound 31, 4-((4-(4-Cyanophenoxy)benzyl)amino)-5-methylisoxazole-3-carboxylic Acid], the inhibition at 100 µM is 30 to 60%.
On to `Cc1onc(C(=O)O)c1Sc1ccc(F)cc1` [Compound 46, 4-((4-Fluorophenyl)thio)-5-methylisoxazole-3-carboxylic Acid], for which the inhibition at 100 µM is 30 to 60%.
Turning to `Cc1[nH]nc(C(=O)O)c1Nc1ccc(-c2ccc(C#N)cc2)cc1` [Compound 39, 4-((4′-Cyano-[1,1′-biphenyl]-4-yl)amino)-5-methyl-H-pyrazole-3-carboxylic Acid], the inhibition at 100 µM was 30 to 60%.
In the case of `Cc1[nH]nc(C(=O)O)c1Nc1ccc(Cc2ccc(OCCN3CCN(C(=O)OC(C)(C)C)CC3)cc2)cc1` [Compound 63, 4-((4-(4-(2-(4-(tert-butoxycarbonyl)piperazin-1-yl)ethoxy)benzyl)phenyl)amino)-5-methyl-1H-pyrazole-3-carboxylic Acid], the inhibition at 100 µM was below 30%.
On to `CCCC/C=C(/SC1=C(C(=O)O)NNC=C1)c1ccc(F)cc1` [Compound 78, (E)-4-((1-(4-Fluorophenyl)hex-1-en-1-yl)thio)-1,2-dihydropyridazine-3-carboxylic Acid], for which the inhibition at 100 µM is below 30%.
